Measured values published in patent US20090306160A1, “METHODS FOR IMPROVING DRUG DISPOSITION” (priority 2005, published 2009).
Each block holds one molecule with its values, some of them ahead of it.

Key:
Caco-2 cell monolayers = assay: Caco-2 bi-directional permeability assay; assay type: in vitro ADME; conditions: Caco-2 cell monolayers
Description: (§1) Alternatively, the in vitro transporter affinity of a drug substance can be determined and approximated by measuring the compound permeability across cells known to express ABC transporters, as e.g. the Caco-2 cell line. Interaction of Compound I with ABC transporter(s) is measured by determining the concentration-dependent compound transport across Caco-2 cell monolayers from the apical (AP) to basolateral (BL) as well as the basolateral to apical side.

[1] = Caco-2 bi-directional permeability assay; assay type: in vitro ADME; conditions: human, Caco-2
Description: as §1

MDR1 = MDR1 (Homo sapiens, UniProt P08183); assay: ATPase assay, reconstituted membranes expressing high levels of MDR1; assay type: biochemical; conditions: for ATPase activity: MDR1 membranes
Sequence of MDR1 (P08183 whole entry, species assumed): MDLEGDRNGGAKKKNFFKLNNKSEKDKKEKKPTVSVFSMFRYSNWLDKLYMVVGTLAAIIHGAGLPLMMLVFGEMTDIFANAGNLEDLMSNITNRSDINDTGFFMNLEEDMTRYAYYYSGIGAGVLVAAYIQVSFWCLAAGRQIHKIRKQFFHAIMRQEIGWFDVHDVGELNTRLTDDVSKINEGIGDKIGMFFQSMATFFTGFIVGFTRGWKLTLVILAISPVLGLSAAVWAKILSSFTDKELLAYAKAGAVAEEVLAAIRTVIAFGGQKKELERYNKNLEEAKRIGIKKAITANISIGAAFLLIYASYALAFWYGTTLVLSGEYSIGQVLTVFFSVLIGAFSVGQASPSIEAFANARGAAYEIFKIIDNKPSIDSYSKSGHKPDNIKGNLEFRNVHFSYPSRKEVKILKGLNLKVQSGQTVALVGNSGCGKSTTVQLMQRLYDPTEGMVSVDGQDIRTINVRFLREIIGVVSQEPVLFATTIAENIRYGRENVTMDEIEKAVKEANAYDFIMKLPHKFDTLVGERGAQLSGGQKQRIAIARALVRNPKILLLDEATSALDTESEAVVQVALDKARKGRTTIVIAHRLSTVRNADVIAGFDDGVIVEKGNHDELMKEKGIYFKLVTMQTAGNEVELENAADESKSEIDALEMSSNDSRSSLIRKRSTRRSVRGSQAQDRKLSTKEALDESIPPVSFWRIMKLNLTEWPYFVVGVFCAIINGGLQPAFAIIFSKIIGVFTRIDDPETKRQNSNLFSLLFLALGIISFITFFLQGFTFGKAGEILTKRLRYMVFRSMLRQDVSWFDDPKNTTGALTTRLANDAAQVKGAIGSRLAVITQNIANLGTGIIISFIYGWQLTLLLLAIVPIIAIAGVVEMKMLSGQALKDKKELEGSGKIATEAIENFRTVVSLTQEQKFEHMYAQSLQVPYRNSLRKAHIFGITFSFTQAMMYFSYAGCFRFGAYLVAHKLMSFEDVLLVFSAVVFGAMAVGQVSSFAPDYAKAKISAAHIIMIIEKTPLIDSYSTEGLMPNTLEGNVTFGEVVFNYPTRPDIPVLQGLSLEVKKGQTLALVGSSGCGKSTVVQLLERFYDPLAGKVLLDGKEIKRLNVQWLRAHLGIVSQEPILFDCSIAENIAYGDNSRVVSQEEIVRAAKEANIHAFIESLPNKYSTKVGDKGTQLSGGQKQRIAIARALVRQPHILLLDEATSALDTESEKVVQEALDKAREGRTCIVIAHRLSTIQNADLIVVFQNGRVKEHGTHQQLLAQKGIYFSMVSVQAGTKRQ
Text: (§2) In this assay the ABC transporters remove substrates out of reconstituted cell membranes by using ATP hydrolysis as an energy source. ATP hydrolysis yields inorganic phosphate (Pi), which can be detected by a simple colorimetric reaction. The amount of Pi liberated by the transporter is proportional to the activity of the transporter. Membrane preparations containing ABC transporters show a baseline ATPase activity that varies for different transporters. Transported substrates increase this baseline ATPase activity. […] No activation of the MDR1 efflux could be observed.

MRP2 [2] = molecular target: T1, MRP2 (Homo sapiens, UniProt Q92887); assay: Vesicular uptake assay of [3H]LTC4 in membrane vesicles over-expressing MRP2; assay type: biochemical; conditions: [3H]LTC4 0.2 μM; for Vesicular uptake, AMP activation / Vesicular uptake, ATP activation: MRP2 vesicles
T1 sequence (Q92887 whole entry, species assumed): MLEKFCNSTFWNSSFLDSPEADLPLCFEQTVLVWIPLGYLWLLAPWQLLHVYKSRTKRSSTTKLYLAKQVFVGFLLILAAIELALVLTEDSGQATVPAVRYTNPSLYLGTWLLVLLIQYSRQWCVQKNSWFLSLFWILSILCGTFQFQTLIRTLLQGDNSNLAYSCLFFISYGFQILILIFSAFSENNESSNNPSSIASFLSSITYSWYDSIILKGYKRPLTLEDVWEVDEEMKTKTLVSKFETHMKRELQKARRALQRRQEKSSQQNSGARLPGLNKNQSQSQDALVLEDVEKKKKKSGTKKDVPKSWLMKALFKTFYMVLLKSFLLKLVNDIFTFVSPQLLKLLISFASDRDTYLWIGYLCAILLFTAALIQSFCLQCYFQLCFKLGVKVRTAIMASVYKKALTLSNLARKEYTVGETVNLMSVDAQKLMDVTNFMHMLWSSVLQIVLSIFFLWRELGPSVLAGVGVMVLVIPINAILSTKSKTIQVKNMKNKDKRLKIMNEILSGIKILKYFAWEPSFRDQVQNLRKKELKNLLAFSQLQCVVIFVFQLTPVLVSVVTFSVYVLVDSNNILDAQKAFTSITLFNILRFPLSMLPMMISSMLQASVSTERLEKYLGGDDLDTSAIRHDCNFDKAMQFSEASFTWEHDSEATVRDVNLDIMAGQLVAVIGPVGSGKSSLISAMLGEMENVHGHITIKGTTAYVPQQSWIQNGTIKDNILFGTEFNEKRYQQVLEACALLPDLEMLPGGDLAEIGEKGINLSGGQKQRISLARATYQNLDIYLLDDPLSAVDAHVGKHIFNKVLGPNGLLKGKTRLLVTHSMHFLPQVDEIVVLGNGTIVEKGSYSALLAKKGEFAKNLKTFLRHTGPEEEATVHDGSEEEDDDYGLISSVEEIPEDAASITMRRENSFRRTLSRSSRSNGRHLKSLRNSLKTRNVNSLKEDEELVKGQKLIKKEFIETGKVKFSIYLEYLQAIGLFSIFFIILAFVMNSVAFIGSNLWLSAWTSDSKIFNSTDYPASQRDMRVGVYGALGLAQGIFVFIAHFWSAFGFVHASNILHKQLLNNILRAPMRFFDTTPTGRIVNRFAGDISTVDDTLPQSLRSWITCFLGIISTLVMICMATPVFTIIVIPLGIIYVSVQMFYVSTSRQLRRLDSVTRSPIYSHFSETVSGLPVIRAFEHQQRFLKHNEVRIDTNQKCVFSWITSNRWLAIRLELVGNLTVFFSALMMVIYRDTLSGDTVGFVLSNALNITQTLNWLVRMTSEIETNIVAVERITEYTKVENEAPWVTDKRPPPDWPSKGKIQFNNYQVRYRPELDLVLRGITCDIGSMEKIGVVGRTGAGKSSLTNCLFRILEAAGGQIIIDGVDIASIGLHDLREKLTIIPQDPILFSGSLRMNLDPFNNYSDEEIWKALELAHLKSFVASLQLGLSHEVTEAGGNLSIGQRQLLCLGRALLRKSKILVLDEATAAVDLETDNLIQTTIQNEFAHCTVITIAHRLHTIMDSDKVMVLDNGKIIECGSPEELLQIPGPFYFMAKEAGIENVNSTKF
Description: (§3) In this assay ATP-dependent uptake into membrane vesicles with inside-out orientation is determined. Interaction of Compound I with ABC transporters is measured indirectly by incubating the purified membrane vesicles with known radioactive probe substrates ([^3H]LTC4 [0.2 μM] for MRP2-LTC4 stands for Leutriene C4- and [^3H]E1S [0.5 μM] -E1S stands for […]—for BCRP) in the presence and absence (negative control) of different concentrations of Compound I or a well-known positive control compound (Benzbromanone for MRP2 and Sulphasalazine for BCRP). As illustrated herein (Tables 2 and 3), Compound I inhibits [^3H]E1S as well as [^3H]LTC4 transport mediated by BCRP (IC50≅1 μM) and MRP2 (IC50≅50 μM), respectively.

BCRP [3] = molecular target: T2, BCRP (Homo sapiens, UniProt Q9UNQ0); assay: Vesicular uptake assay of [3H]E1S in membrane vesicles over-expressing BCRP; assay type: biochemical; conditions: [3H]E1S 0.5 μM, read-out: IC50, inhibition of [3H]E1S transport mediated by BCRP
T2 sequence (Q9UNQ0 1-655): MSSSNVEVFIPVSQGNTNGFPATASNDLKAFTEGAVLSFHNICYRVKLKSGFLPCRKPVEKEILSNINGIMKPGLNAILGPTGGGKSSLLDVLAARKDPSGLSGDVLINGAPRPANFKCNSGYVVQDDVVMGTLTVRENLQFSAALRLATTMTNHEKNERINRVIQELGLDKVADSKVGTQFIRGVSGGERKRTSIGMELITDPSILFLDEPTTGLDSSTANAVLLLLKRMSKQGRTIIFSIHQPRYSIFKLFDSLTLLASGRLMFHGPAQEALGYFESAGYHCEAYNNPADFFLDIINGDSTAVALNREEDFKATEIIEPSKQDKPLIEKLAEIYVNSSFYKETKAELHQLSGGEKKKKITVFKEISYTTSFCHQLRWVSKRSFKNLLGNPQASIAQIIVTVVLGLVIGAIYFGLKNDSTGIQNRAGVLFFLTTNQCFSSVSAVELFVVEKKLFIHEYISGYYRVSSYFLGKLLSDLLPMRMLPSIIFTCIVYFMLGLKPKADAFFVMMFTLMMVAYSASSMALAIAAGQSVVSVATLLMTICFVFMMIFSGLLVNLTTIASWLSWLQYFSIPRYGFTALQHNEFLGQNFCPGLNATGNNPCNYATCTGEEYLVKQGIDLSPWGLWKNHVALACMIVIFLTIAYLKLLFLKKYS
Description: as §3

MRP2 [4] = molecular target: T1, MRP2; assay: ATPase assay, reconstituted membranes expressing high levels of MRP2; assay type: biochemical
Text: as §2

BCRP [5] = molecular target: T2, BCRP; assay: ATPase assay, reconstituted membranes expressing high levels of BCRP; assay type: biochemical
Text: as §2

- concentration at which bi-directional permeability values converge (complete efflux transporter saturation) (Caco-2 cell monolayers): about 50 μM
- Papp A→B at 1 μM ([1]; apical to basolateral, conc. 1 μM, read-out: Caco-2 permeability Papp(AP-BL) (converted)): 10 nm/s
- Papp A→B at 5 μM ([1]; apical to basolateral, conc. 5 μM, read-out: Caco-2 permeability Papp(AP-BL) (converted)): 76.7 nm/s
- Papp A→B at 10 μM ([1]; apical to basolateral, conc. 10 μM, read-out: Caco-2 permeability Papp(AP-BL) (converted)): 116 nm/s
- Papp A→B at 50 μM ([1]; apical to basolateral, conc. 50 μM, read-out: Caco-2 permeability Papp(AP-BL) (converted)): 146 nm/s
- Papp B→A at 1 μM ([1]; basolateral to apical, conc. 1 μM, read-out: Caco-2 permeability Papp(BL-AP) (converted)): 155 nm/s
- Papp B→A at 5 μM ([1]; basolateral to apical, conc. 5 μM, read-out: Caco-2 permeability Papp(BL-AP) (converted)): 238 nm/s
- Papp B→A at 10 μM ([1]; basolateral to apical, conc. 10 μM, read-out: Caco-2 permeability Papp(BL-AP) (converted)): 222 nm/s
- Papp B→A at 50 μM ([1]; basolateral to apical, conc. 50 μM, read-out: Caco-2 permeability Papp(BL-AP) (converted)): 215 nm/s
- ATPase activity (MDR1; Compound I 0.04 μM): 18.7 ± 0.6 nmol Pi/min/mg protein
- ATPase activity (MDR1; Compound I 0.13 μM): 18.0 ± 0.7 nmol Pi/min/mg protein
- ATPase activity (MDR1; Compound I 0.40 μM): 17.4 ± 1.3 nmol Pi/min/mg protein
- ATPase activity (MDR1; Compound I 1.21 μM): 17.0 ± 1.0 nmol Pi/min/mg protein
- ATPase activity (MDR1; Compound I 3.63 μM): 17.3 ± 0.3 nmol Pi/min/mg protein
- ATPase activity (MDR1; Compound I 10.89 μM): 17.3 ± 0.5 nmol Pi/min/mg protein
- ATPase activity (MDR1; Compound I 32.67 μM): 17.3 ± 0.4 nmol Pi/min/mg protein
- ATPase activity (MDR1; Compound I 98.0 μM): 16.7 ± 0.5 nmol Pi/min/mg protein
- activation of the MDR1 efflux (ATPase) (MDR1; reconstituted membranes expressing high levels of MDR1): No activation
- Vesicular uptake, AMP activation (MRP2 [2]; compound conc. 10 μM): 5.4 pmol/mg/min
- Vesicular uptake, ATP activation (MRP2 [2]; compound conc. 10 μM): 25.6 pmol/mg/min
- Vesicular uptake, AMP activation (MRP2 [2]; compound conc. 100 μM): 5.8 pmol/mg/min
- Vesicular uptake, ATP activation (MRP2 [2]; compound conc. 100 μM): 11.5 pmol/mg/min
- IC50 (MRP2 [2]; membrane vesicles, read-out: IC50, inhibition of [3H]LTC4 transport mediated by MRP2): ~50 µM
- IC50 (BCRP [3]): ~1 µM
- ATPase activity (MRP2 [4]; Compound I 0.04 μM): 5.1 ± 0.6 nmol Pi/min/mg protein
- ATPase activity (MRP2 [4]; Compound I 0.13 μM): 5.4 ± 0.3 nmol Pi/min/mg protein
- ATPase activity (MRP2 [4]; Compound I 0.40 μM): 5.4 ± 0.1 nmol Pi/min/mg protein
- ATPase activity (MRP2 [4]; Compound I 1.21 μM): 5.1 ± 0.4 nmol Pi/min/mg protein
- ATPase activity (MRP2 [4]; Compound I 3.63 μM): 5.0 ± 0.0 nmol Pi/min/mg protein
- ATPase activity (MRP2 [4]; Compound I 10.89 μM): 5.2 ± 0.4 nmol Pi/min/mg protein
- ATPase activity (MRP2 [4]; Compound I 32.67 μM): 6.3 ± 0.2 nmol Pi/min/mg protein
- ATPase activity (MRP2 [4]; Compound I 98.0 μM): 8.3 ± 0.7 nmol Pi/min/mg protein
- ATPase activity (BCRP [5]; Compound I 0.04 μM): 32.9 ± 1.0 nmol Pi/min/mg protein
- ATPase activity (BCRP [5]; Compound I 0.13 μM): 35.5 ± 0.8 nmol Pi/min/mg protein
- ATPase activity (BCRP [5]; Compound I 0.40 μM): 34.2 ± 8.0 nmol Pi/min/mg protein
- ATPase activity (BCRP [5]; Compound I 1.21 μM): 49.4 ± 0.5 nmol Pi/min/mg protein
- ATPase activity (BCRP [5]; Compound I 3.63 μM): 61.1 ± 0.3 nmol Pi/min/mg protein
- ATPase activity (BCRP [5]; Compound I 10.89 μM): 65.9 ± 0.1 nmol Pi/min/mg protein
- ATPase activity (BCRP [5]; Compound I 32.67 μM): 65.7 ± 0.5 nmol Pi/min/mg protein
- ATPase activity (BCRP [5]; Compound I 98.0 μM): 60.3 ± 1.6 nmol Pi/min/mg protein
SMILES: O=C(O)c1ccc(-n2nc(-c3ccccc3O)nc2-c2ccccc2O)cc1 [Compound I, 4-[3,5-bis(2-hydroxyphenyl)-[1,2,4]trizol-1-yl]benzoic acid]
- efflux substrate identification (Caco-2 cell monolayers; AP-BL vs BL-AP transport): substrate for one or several prominent efflux system(s)
- Km (Caco-2 cell monolayers; bi-directional transport, read-out: apparent Km of efflux transport): ~5 µM

- Vesicular uptake, AMP activation (MRP2 [2]; positive control conc. 3000 μM): 11.1 pmol/mg/min
- Vesicular uptake, ATP activation (MRP2 [2]; positive control conc. 3000 μM): 10.8 pmol/mg/min
SMILES: CCCCc1oc2ccccc2c1C(=O)c1cc(Br)c(O)c(Br)c1 [Benzbromanone, reference compound]
